Entries after “also recorded” stand apart in the source; their conditions may differ. Where a name gives a salt, the structure may show the parent alone.
Experiments:
[1] = tested on: M. tuberculosis isolate 571/573-BAL; assay: Detergent screen for induced susceptibility, BACTEC 12B growth curves; format: cell-based, Mycobacterium tuberculosis; details: for RESULT (effect on growth): 571/573-BAL, detergent approximately 17 μg/ml final, BACTEC 12B supplemented with PANTA or P/cax (ceftriaxone 8 μg/ml); for CB-18 effect in the methods of the invention: carboxybetaines tested
[2] = tested on: M. tuberculosis isolates ATCC 27294 and 571/573-BAL; assay: CB-18 vs. EDTA, BACTEC 12B growth curves; format: cell-based, Mycobacterium tuberculosis
[3] = tested on: M. tuberculosis isolate 571/573-BAL; assay: Planting in lecithin at low inocula, BACTEC 12B growth curves; format: cell-based, Mycobacterium tuberculosis
Text: In this experiment the 571/573-BAL isolate was cultivated on 7H11-selective media, serially diluted in NALC/citrate to approximately 1,000×. In an attempt to examine how the inoculum impacted the results of this assay three different stocks were manufactured, one series in buffer and one series in CB-18. […] The planting solutions were manufactured by mixing these three stocks 1:1 with either buffer or a buffered solution of lecithin (Sigma, St. Louis, Mo.; Cat.#: P 5394 (7.5% lecithin was made up as a 100× concentrate in 100% ethanol (3 grams in 40 mls) and diluted in the Tris buffer of Example 1 immediately prior to use)). The final dilutions of three different planting solutions were approximately 5000×, 25,000×, and 100,000×. The final concentration of CB-18 and lecithin in the appropriate planting solutions was approximately 0.5 mM. […] The final concentration of both lecithin and CB-18 during incubation was approximately 17 μg/ml.
Aliquots of the three stocks (i.e., 2,500×, 12,500× and 50,000×) were also taken for quantitative culture by plating on 7H10 plates (Becton Dickinson, Cockeysville, Md.). […] FIG. 5A presents the 5,000× series planted in either buffer or buffer containing lecithin, and FIG. 5B presents the 5,000× series planted in CB-18 or CB-18 combined with lecithin. FIG. 5C presents the 25,000× series planted in either buffer or buffer containing lecithin, and FIG. 5D presents the 25,000× series planted in CB-18 or CB-18 combined with lecithin. FIG. 5E presents the 100,000× series planted in either buffer or buffer containing lecithin, and FIG. 5F presents the 100,000× series planted in CB-18 or CB-18 combined with lecithin.

[4] = tested on: M. tuberculosis isolates ATCC 27294 and 571/573-BAL; assay: CB-18 and TMA-18 comparison, BACTEC 12B growth curves; format: cell-based, Mycobacterium tuberculosis
Protocol: If the mechanism of CB-18's action was similar to that of the quaternary salts (i.e., generally deleterious), then some delay would be anticipated. For example, if the CB-18 effect was a consequence of the surface active property of the detergent, then disruption of cellular function would not only have nonspecific long term consequences, but would also be independent of the isolate. In an effort to examine the similarity in the mechanism, CB-18 was assayed in parallel with trimethyloctadecylammonium bromide (TMA-18 (Aldrich, Milwaukee, Wis., Cat.# 35,924-6): made as a 100× stock in 1:1, water:isopropanol similar to that described for CB-18 in Example 1). The experimental design is outlined in FIG. 6.
In this experiment both ATCC 27294 and 571/573-BAL were cultivated on 7H11-selective media, and then serially diluted in NALC/citrate to 10,000×. The planting solution (i.e., the final dilution (50,000×)) was manufactured by diluting into either buffer, 0.5 mM CB-18, or 0.1 mM TMA-18 (all concentrations represent the final detergent concentration in the planting solution). […] The final concentration of CB-18 during incubation was approximately 17 μg/ml. The final concentration of TMA-18 during incubation was approximately 3.4 μg/ml. […] FIGS. 7A–7C show one experiment wherein ATCC 27294 cells were planted in the different solutions described above, and FIGS. 8A–8C show a parallel experiment wherein 571/573-BAL cells were planted in the same series.

[5] = tested on: M. tuberculosis isolates ATCC 27294 and 571/573-BAL; assay: Further studies of the range of activity of betaines; format: cell-based, Mycobacterium tuberculosis
Text: FIGS. 32A and 32B show the variability when simple (i.e., unmodified) carboxybetaines with methylene (Detain PB and Velvetex OLB), ethylene (C18-carboxyethylbetaine), and propylene (CB-18) bridges were employed in this assay. This is consistent with the data of Tsubone K. et al., Jour. Pharm. Sci. 80:441–444 (1991) wherein toxicity is correlated with bridge length.
While the apparent bactericidal activity of the amine oxide was anticipated based on the use of these compounds in antimicrobial formulations (Michaels, E. B., U.S. Pat. No. 564,454 and U.S. Pat. No. 641,728), the activity of the Brij compounds and Crosultaine E-30 was surprising. […] Crosultaine E-30 has both an amidopropyl linkage and a hydroxypropyl bridge. […] Historically, the nonionic detergents have been reported to be contaminated with impurities, and only when purified stimulate growth (Dubos, R. J. et al., Jour. Exptl. Med. 83:409–423 (1946)). Impurities might explain the results with the Brij detergents and Crosultaine E-30.

[6] = tested on: M. fortuitum complex isolates ATCC 6841 and 495-JHH; assay: CB-18 titration, BACTEC 12B growth curves; format: cell-based; details: M. fortuitum 495-JHH; cefoxitin (8 μg/ml in PANTA) without CB-18

Compound | RESULT (effect on growth) [1] | other results
cetyl-(poyoxyethylene)10 [Brij 56, reference compound] | significantly suppress growth; also recorded: Very strong suppression of growth | 
oleyl-carboxymethylbetaine [Velvetex OLB-50] | Very strong suppression of growth | CB-18 effect in the methods of the invention [1]: show the CB-18 effect
oleyl-(poyoxyethylene)10 [Brij 97, reference compound] | significantly suppress growth; also recorded: Very strong suppression of growth | 
CCCCCCCCCCCCCCCC[N+](C)(C)CC(=O)[O-] [DeTaine PB, cetyl-carboxymethylbetaine] | Strong suppression of growth | CB-18 effect in the methods of the invention [1]: show the CB-18 effect
stearylamidopropyl-carboxybetaine [Schercotaine IAB] | No effect | 
[Cl-].[Cl-].[Mg+2] [MgCl2, reference compound] |  | effect on growth character in the presence of CB-18 ([2]; 571/573-BAL, five-fold molar excess of MgCl2 (85 μg/ml) added to CB-18 17 μg/ml, R.F.): no improvement; effect on the detrimental effects of the CB-18/P-cax combination ([2]; MgCl2 85 μg/ml added to CB-18 17 μg/ml with P-cax, both isolates, especially 571/573-BAL): alleviate, to some degree
phosphatidylcholine [lecithin] |  | ability to overcome the detrimental effect of CB-18 ([3]; lecithin and CB-18 approximately 17 μg/ml each, CB-18 alone and in combination with antibiotics): able to overcome the detrimental effect of CB-18; ability to overcome the deleterious effect of the antibiotic formulation (P/caz) ([3]; lecithin approximately 17 μg/ml, absence of CB-18): ability to overcome, to some degree; impact on the sensitivity of the BACTEC 12B assay ([3]; lecithin approximately 17 μg/ml, no CB-18): little if any impact
C[C@H](CCC(=O)NCCC[N+](C)(C)CCCS(=O)(=O)[O-])[C@H]1CC[C@H]2[C@@H]3[C@H](O)C[C@@H]4C[C@H](O)CC[C@]4(C)[C@H]3C[C@H](O)[C@]12C [CHAPS, reference compound] | No effect | 
C[C@H](CCC(=O)O)[C@H]1CC[C@H]2[C@@H]3CC[C@@H]4C[C@H](O)CC[C@]4(C)[C@H]3C[C@H](O)[C@]12C [Deoxycholic acid, deoxycholic acid, reference compound] | No effect | 
erucamidopropyl hydroxypropyl sulfobetaine [Crosultaine E-30] | Strong suppression of growth | RESULT (effect on growth) ([1]; listed as Crosultaine E30): significantly suppress growth
CCCCCCCCCCCCCC[N+](C)(C)Cc1ccccc1.[Cl-] [benzyldimethyl-tetradecyl ammonium chloride, reference compound] | Complete suppression of growth | 
CCCCCCCCCCCCCCCC(=O)O [Palmitic acid, palmitic acid, reference compound] | No effect | 
CCCCCCCCCCCCCCCC[N+](C)(C)CC(O)CS(=O)(=O)[O-] (stereo not shown) [C16-hydroxypropyl-sulfobetaine] | Slight delay in growth | 
CCCCCCCCCCCCCCCCCC[N+](C)(C)C.[Br-] [TMA-18, trimethyloctadecylammonium bromide, reference compound] | Complete suppression of growth | effect on growth ([4]; 571/573-BAL, 3.4 μg/ml TMA-18, R.F., PANTA or P/cax): significant delays were observed in all bottles; effect on growth ([4]; ATCC 27294, 3.4 μg/ml TMA-18, R.F., PANTA or P/cax): significant delays in all bottles; effect on growth ([4]; ATCC 27294 and 571/573-BAL, TMA-18 3.4 μg/ml (FIGS. 7C and 8C)): bacteriostatic in isolation; also recorded: inhibitory at low concentrations
CCCCCCCCCCCCCCCCCC[N+](C)(C)CCCS(=O)(=O)[O-] [SB-18, N-octadecyl-N,N-dimethyl-3-ammonio-1-propane-sulfonate] | significant activity; also recorded: Modest suppression | range of activity ([5]; 571/573-BAL): 20 to 75 µg/mL
CCCCCCCCCCCCCCCCCC[N+](C)(C)Cc1ccccc1.[Cl-] [Benzyldimethyl-stearyl ammonium chloride, benzyldimethyl-stearyl ammonium chloride, reference compound] | Complete suppression of growth | 
O=C(O)CN(CCN(CC(=O)O)CC(=O)O)CC(=O)O [EDTA] |  | effect on growth characteristics ([2]; ATCC 27294 and 571/573-BAL, EDTA approximately 17 μg/ml, R.F. or P/cax): no effect
CCCCCCCCCCCCCCCCCC[N+](C)(C)CCC(=O)[O-] [C18-carboxyethylbetaine, N-(2-carboxyethyl)-N,N-dimethyl-1-octadecanaminium, inner salt] | strong ability to suppress growth when combined with antibiotics; also recorded: Complete suppression of growth | range of activity ([5]; ATCC 27294): 7 to 13 µg/mL; CB-18 effect in the methods of the invention [1]: show the CB-18 effect
CCCCCCCCCCCCCCCCCC[N+](C)(C)CCCCS(=O)(=O)[O-] [C18-sulfobutylbetaine] | Slight delay in growth | 
CCCCCCCCCCCCCCCCCC(=O)O [Stearic acid, stearic acid, reference compound] | No effect | 
CO[C@@]1(NC(=O)Cc2cccs2)C(=O)N2C(C(=O)O)=C(COC(N)=O)CS[C@@H]21 [cefoxitin, reference compound] |  | effect on growth [6]: unaffected
C16-amidopropyl-sulfatobetaine | No effect | 

Source: US7067500B2, “Betaines as adjuvants to susceptibility testing and antimicrobial therapy” (priority 1997, dated 2006)
